Reference: publication PMC11220827 (Frontiers in Pharmacology, 2024)

Target: T1, TRβ (Homo sapiens, UniProt P10828)
T1 sequence (P10828 1-461): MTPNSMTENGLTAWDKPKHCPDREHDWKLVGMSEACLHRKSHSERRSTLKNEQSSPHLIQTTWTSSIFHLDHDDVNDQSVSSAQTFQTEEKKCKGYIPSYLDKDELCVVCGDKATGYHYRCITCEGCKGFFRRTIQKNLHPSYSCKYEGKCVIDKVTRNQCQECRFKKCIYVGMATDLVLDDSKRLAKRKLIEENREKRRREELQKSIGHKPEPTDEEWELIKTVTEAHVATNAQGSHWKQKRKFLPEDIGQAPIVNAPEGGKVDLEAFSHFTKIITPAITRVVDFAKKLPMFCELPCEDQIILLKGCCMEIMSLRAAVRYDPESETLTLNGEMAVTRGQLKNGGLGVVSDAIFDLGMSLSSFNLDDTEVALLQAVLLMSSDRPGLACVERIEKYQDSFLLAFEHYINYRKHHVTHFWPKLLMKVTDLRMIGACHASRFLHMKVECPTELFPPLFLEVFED
Conditions: reference
Procedure: using the U2-OS based CALUX cytotox bioassay. The cytotoxicity of each test chemical was assessed using the U2-OS based cytotoxicity CALUX bioassay. Concentrations causing >20% reduction of luminescence were considered cytotoxic.
cytotoxicity (relative induction in the cytotoxicity CALUX bioassay > 80%) were used for final
evaluation of analysis results.
induction in the cytotox CALUX bioassay > 80%) were used for final evaluation of analysis results.
All analysis results were expressed in molar (M) final in well.
For determination of the (anti-)ERα, (anti-)AR and (anti-)TRβ CALUX activities, CALUX cells were
seeded in assay medium. Following exposure of the CALUX cells to serial dilutions of the
compounds in triplicate for 24 h, the induction of luciferase production was quantified by measuring
luminescence following addition of the substrate luciferin. For antagonist assays, a fixed
concentration of assay agonist was present in each well, to generate a basal signal. On each plate, a
complete calibration curve for each respective bioassay was also analysed using the relevant reference
compounds. For the analyses in the presence of rat liver S9, 0.03% (v/v) of PB/BNF induced rat liver
S9 mix (including NADPH and an NADPH-regenerating system) was added to the cells directly after
addition of the compounds, which remained there for the duration of the exposure period (24 h) (van
Relative light units (RLUs) of the CALUX assays were analysed as follows. For agonist assays,
background values (exposure to DMSO only) were subtracted, and the maximum activity of the
assay’s reference compound was set to 100%. For antagonist assays, the basal signal (exposure to fixed concentration of agonist only) was set to 100%. Activity of the samples was scaled accordingly,
resulting in expression of the data as “percentage of maximum reference response”. Graphs were
generated using the statistical software package GraphPad Prism V5.03. Using these graphs, lowest
effect concentrations (LOECs) and PC50 concentrations were determined; LOEC is defined as the […]

## CC1=C[C@H]2O[C@@H]3[C@H](O)C[C@](C)([C@@]2(CO)[C@H](O)C1=O)[C@]31CO1 [Deoxynivalenol, reference compound]
  Anti-TRß antithyroid LOEC, reference compound: −6.9 Log M
